What was measured:
[1] = biological target: T1, Corticotropin-releasing factor receptor 1 (Homo sapiens, UniProt P34998); assay: Displacement of [125I]-Tyr-o- CRF from human corticotropin releasing factor receptor 1 expressed in IMR-32 cells; format: cell-based
T1 sequence (P34998 whole entry): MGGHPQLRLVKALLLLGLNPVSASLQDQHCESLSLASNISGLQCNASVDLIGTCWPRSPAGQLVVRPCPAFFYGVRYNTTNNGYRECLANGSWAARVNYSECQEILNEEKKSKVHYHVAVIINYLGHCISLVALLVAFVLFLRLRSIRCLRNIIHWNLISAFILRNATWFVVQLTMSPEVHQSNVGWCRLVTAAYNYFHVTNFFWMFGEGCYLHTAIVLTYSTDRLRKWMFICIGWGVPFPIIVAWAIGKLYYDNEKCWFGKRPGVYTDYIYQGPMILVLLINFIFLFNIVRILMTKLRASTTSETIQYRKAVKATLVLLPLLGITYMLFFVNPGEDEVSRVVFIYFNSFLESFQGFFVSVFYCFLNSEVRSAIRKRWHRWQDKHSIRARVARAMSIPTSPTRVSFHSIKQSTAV

[2] = Area under curve (0-24 hr) upon oral administration of 10 mg/kg of dose in a dosing vehicle of 10/10/80 cremaphor/DMSO/water; format: ADME, organism-based; set-up: time < 24 hr, dose 10 mg/kg, route oral; details: in vivo
[3] = Maximum concentration upon oral administration of 10 mg/kg of dose in a dosing vehicle of 10/10/80 cremaphor/DMSO/water; format: ADME, organism-based; set-up: dose 10 mg/kg, route oral; details: in vivo
[4] = Clearance upon intravenous administration of 2 mg/kg of dose in a dosing vehicle of 10/10/80 cremaphor/DMSO/water; format: ADME, organism-based; set-up: dose 2 mg/kg, route intravenous; details: in vivo
[5] = Volume of distribution upon intravenous administration of 2 mg/kg of dose in a dosing vehicle of 10/10/80 cremaphor/DMSO/water; format: ADME, organism-based; set-up: dose 2 mg/kg, route intravenous; details: in vivo
[6] = Brain to plasma (2 hours) concentration ratio upon intravenous administration of 2 mg/kg of dose in a dosing vehicle of 10/10/80 cremaphor/DMSO/water; format: ADME, organism-based; set-up: dose 2 mg/kg, route intravenous; details: brain and plasma, read-out: B/P
[7] = Maximum time to reach peak concentration upon oral administration of 10 mg/kg of dose in a dosing vehicle of 10/10/80 cremaphor/DMSO/water; format: ADME, organism-based; set-up: dose 10 mg/kg, route oral; details: in vivo
[8] = Bioavailability upon oral administration of 10 mg/kg of dose in a dosing vehicle of 10/10/80 cremaphor/DMSO/water; format: ADME, organism-based; details: eutheria, in vivo

| Ki [1] [nM] | SMILES | also measured |
| --- | --- | --- |
| 1560 | CCCN(CC1CC1)C(=O)c1c(CC)nc2n1CCN2c1ccc(C(C)C)cc1Br |  |
| 61 | CCCN(CC(F)(F)F)C(=O)c1c(CC)nc2n1CCN2c1c(C)cc(C)cc1C |  |
| 650 | CCc1nc2n(c1C(=O)N(CCC1CC1)CCC(F)(F)F)CCN2c1c(C)cc(C)cc1C |  |
| 100 | CCCN(CCC)C(=O)c1c(CC)nc2n1CCN2c1c(C)cc(C)cc1C |  |
| 610 | CCc1nc2n(c1C(=O)N(CC)CCC1CC1)CCN2c1c(C)cc(C)cc1C |  |
| 19000 | CCCN(Cc1c(CC)nc2n1CCN2c1c(C)cc(C)cc1C)CC1CC1 |  |
| 41 | CCc1nc2n(c1C(=O)N(CC1CC1)CC(F)(F)F)CCN2c1c(C)cc(C)cc1Cl |  |
| 73 | CCc1nc2n(c1C(=O)N(CCC(F)(F)F)CC1CC1)CCN2c1c(C)cc(C)cc1C |  |
| 26 | CCc1nc2n(c1C(=O)N(CC1CC1)CC(F)(F)F)CCN2c1c(C)cc(C)cc1Br |  |
| 4200 | CCCN(Cc1cccc(F)c1)C(=O)c1c(CC)nc2n1CCN2c1c(C)cc(C)cc1C |  |
| 4100 | CCCN(Cc1ccccc1)C(=O)c1c(CC)nc2n1CCN2c1c(C)cc(C)cc1C |  |
| > 10000 | CCc1nc2n(c1C(=O)N1CCN(C(C)=O)CC1)CCN2c1c(C)cc(C)cc1C |  |
| 660 | CCc1nc2n(c1C(=O)N(CCC(F)(F)F)Cc1ccccc1)CCN2c1c(C)cc(C)cc1C |  |
| 41 | CCc1nc2n(c1C(=O)N(CC1CC1)CC(F)(F)F)CCN2c1c(C)cc(C)cc1C |  |
| 740 | C=CCN(CCC)C(=O)c1c(CC)nc2n1CCN2c1c(C)cc(C)cc1C |  |
| 220 | CCCN(CC1CC1)C(=O)c1c(C)nc2n1CCN2c1c(C)cc(C)cc1C |  |
| 3000 | C=CCN(CC=C)C(=O)c1c(CC)nc2n1CCN2c1c(C)cc(C)cc1C |  |
| 63 | CCc1nc2n(c1C(=O)N(CC1CC1)CC(F)(F)C(F)(F)F)CCN2c1c(C)cc(C)cc1C |  |
| 94 | CCCN(CC1CC1)C(=O)c1c(CC)nc2n1CCN2c1c(C)cc(C)cc1Cl |  |

| Ki [1] [nM] | SMILES | also measured |
| --- | --- | --- |
| 42 | CCCN(CC1CC1)C(=O)c1c(CC)nc2n1CCN2c1c(C)cc(C)cc1C | AUC(0-t) at 24 h [2]: 1520 ng·h/mL; Cmax [3]: 250 ng/mL; clearance [4]: 35 mL/min/kg; Vd [5]: 5.7 L/kg; Kp at 2 h [6]: 0.21; Tmax [7]: 4 h; bioavailability [8]: 32% |
| 24 | CCc1nc2n(c1C(=O)N(CC1CC1)CC(F)(F)F)CCN2c1c(C)cc(Cl)cc1Cl |  |
| > 10000 | CCc1nc2n(c1C(=O)N(Cc1ccccc1)Cc1ccccc1)CCN2c1c(C)cc(C)cc1C |  |
| 3000 | CCCN(Cc1ccc(Cl)cc1)C(=O)c1c(CC)nc2n1CCN2c1c(C)cc(C)cc1C |  |
| 270 | CCc1nc2n(c1C(=O)N(CC1CC1)CC(F)(F)F)CCN2c1ccc(C(C)C)cc1Br |  |
| > 10000 | CCc1nc2n(c1C(=O)Nc1ccccc1)CCN2c1c(C)cc(C)cc1C |  |
| 68 | CCc1nc2n(c1C(=O)N(CC1CC1)CC1CC1)CCN2c1c(C)cc(C)cc1C |  |
| 75 | CCCN(CC1CC1)C(=O)c1c(CC)nc2n1CCN2c1c(C)cc(Cl)cc1Cl |  |
| 220 | CCCN(CCc1ccccc1)C(=O)c1c(CC)nc2n1CCN2c1c(C)cc(C)cc1C |  |
| 770 | CCCN(CCC1CC1)C(=O)c1c(CC)nc2n1CCN2c1c(C)cc(C)cc1C |  |
| > 10000 | CCc1nc2n(c1C(=O)N(CC)CCN(C)C)CCN2c1c(C)cc(C)cc1C |  |
| 94 | CCc1nc2n(c1C(=O)N(CC)CC1CC1)CCN2c1c(C)cc(C)cc1C |  |
| 220 | CCCN(CCC(F)(F)F)C(=O)c1c(CC)nc2n1CCN2c1c(C)cc(C)cc1C |  |
| 6600 | CCCN(Cc1c(C)nc2n1CCN2c1c(C)cc(C)cc1C)CC1CC1 |  |
| > 10000 | CCc1nc2n(c1C(=O)N1CCNCC1)CCN2c1c(C)cc(C)cc1C |  |
| > 10000 | CCc1nc2n(c1C(=O)N1CCN(c3ccccc3F)CC1)CCN2c1c(C)cc(C)cc1C |  |
| 126 | CCCN(CC1CC1)C(=O)c1c(CC)nc2n1CCN2c1c(C)cc(C)cc1Br |  |
| 290 | CCCCN(CC)C(=O)c1c(CC)nc2n1CCN2c1c(C)cc(C)cc1C |  |
| 270 | CCc1nc2n(c1C(=O)N(CCC(F)(F)F)Cc1ccc(Cl)cc1)CCN2c1c(C)cc(C)cc1C |  |

Source: ChEMBL document CHEMBL1142795, “Synthesis, structure-activity relationships, and anxiolytic activity of 7-aryl-6,7-dihydroimidazoimidazole corticotropin-releasing factor 1 receptor antagonists” (Bioorg Med Chem Lett, 2005)
